The assay relates to Passive cutaneous anaphylaxis (PCA). Briefly: Passive cutaneous anaphylaxis (PCA) in rats. The assay is classed as in vivo. To be noted: Rattus norvegicus. The text has this:
Cutaneous anaphylaxis can be induced in rats by intradermal (ID) sensitization with antiserum followed three days later by systemic challenge with antigen. Evans blue dye injected with the antigen is used as a marker to assess the severity of the local response. Anti-allergic drugs inhibit this reaction. This method has been described by OVARY (1962) "[…] Cutaneous Anaphylaxis in Allergology" Page 358-367 Ed. Brown: Pergamon Press:-male rats weighing 180-220 grams are used in groups of seven. […] 1. Wash 120 grams of Al(OH)3 gel in 140 ml of saline (use of a macerater facilitates mixing). 2. Centrifuge at 3,000 r.p.m. for about 10 minutes. 3. Resuspend the precipitate with 300 ml of albumen egg powder (1.3 mg/ml) in saline and allow to stand for 30 minutes. 4. Centrifuge at 3,000 r.p.m. for 10 minutes. 5. Weigh the wet precipitate and to each gram weight add 1 ml of saline. Store in refrigerator (Quantity sufficient for 60 rats for a 3 day sensitization program). […] 1 ml of the alum precipitated ovalbumen was injected subcutaneously into rats weighing 180-220 grams on days 0,2,4. The rats were bled on day 14 either by cardiac puncture or via the dorsal abdominal aorta. Equal quantities of serum from each animal were pooled and thoroughly mixed and 2 ml aliquots were stored at -20° C. in plastic tubes. Serum Dilution for PCA The antiserum for sensitization was diluted so that an ID injection of 0.1 ml into control animals would give an average score of a single spot of between 2.0-3.5 using a 4 point scoring system. Method (A) SENSITIZATION: The rats were anaesthetized with Nembutal (40-60 mg/kg i.p.) and were then sensitized by four ID injections (0.1 ml each) on their shaved backs. The animals were then left for a period of three days to develop sensitization. (B) […]: The sensitized rats were dosed orally or intraveneously with the drug immediately prior to intraveneous challenge via the superficial penile vein with 1 ml of an antigen/Evans blue mixture (1 mg albumen egg powder in 0.5 ml saline plus 0.5 ml of 1% Evans blue). The injections were speeded up by using an automatic 1 ml self-filling glass syringe. The "challenged" rats were killed after 30 minutes, (usually pithed) and their skin on the dorsal surface was removed. The degree and area of blueing, proportional to the anaphylactic reaction was assessed on a four point scoring system. Calculations 1. Total scores for sites 1,2,3 and 4=X 2. Mean value of X for each group=X 3. X t=X for test group X c=X for control group [formula] 5. […] ED50 values for the compounds tested in the passive cutaneous anaphylaxis screen (in rats) are as follows: […]

[1] abbreviates: read-out: ED50 (dose of drug giving 50% inhibition), i.v., intravenous dosing immediately prior to antigen/Evans blue challenge.
Setting [2] is: read-out: ED50 (dose of drug giving 50% inhibition), p.o., oral dosing immediately prior to antigen/Evans blue challenge.

The source of these data is US4279912A, “Novel imidazoquinolines” (Roussel Uclaf, priority 1977, dated 1981).

Where a name gives a salt, the structure may show the parent alone. Read-outs that look alike come from different tables or passages of the source.

As for `O=C(O)c1cn2c(ccc3ccccc32)n1` [Example 2, imidazo-[1,2-a]-quinoline-2-carboxylic acid hydrochloride], the ED50 runs as follows: under setting [1], 0.29 mg/kg; under setting [2], 0.63 mg/kg.
On the same counts, the results for `COc1cc2nc(C(=O)O)cn2c2ccccc12` [Example 4, THAM salt of 5-methoxyimidazo-[1,2-a]-quinoline-2-carboxylic acid] are 0.57 mg/kg and 3.74 mg/kg.
With `CCOC(=O)c1cn2c(cc(Cl)c3ccccc32)n1` [Example 5, ethyl 5-chloroimidazo-[1,2-a]-quinoline-2-carboxylate], under setting [2], the ED50 was determined as 0.096 mg/kg.
As for `O=C(O)c1cn2c(cc(Cl)c3ccccc32)n1` [Example 6, 5-chloroimidazo-[1,2-a]-quinoline-2-carboxylic acid hydrochloride], the ED50 is, setting by setting: under setting [1], 0.0075 mg/kg; under setting [2], 0.47 mg/kg.
On the same counts, the results for `CC(C)Oc1cc2nc(C(=O)O)cn2c2ccccc12` [Example 8, 5-isopropoxyimidazo-[1,2-a]-quinoline-2-carboxylic acid hydrochloride] are 0.12 mg/kg and 1.13 mg/kg.
As for `CCOC(=O)c1cn2c(ccc3ccc(Cl)cc32)n1` [Example 9, ethyl 8-chloroimidazo-[1,2-a]-quinoline-2-carboxylate], the ED50 under setting [2] worked out at 1.72 mg/kg.
Take `O=C(O)c1cn2c(ccc3ccc(Cl)cc32)n1` [Example 10, sodium 8-chloroimidazo-[1,2-a]-quinoline-2-carboxylate]: the ED50 by setting is: under setting [1], 0.069 mg/kg; under setting [2], 0.11 mg/kg.
In the case of `COc1ccc2c(OC)cc3nc(C(=O)O)cn3c2c1` [Example 12, 5,8-dimethoxyimidazo-[1,2-a]-quinoline-2-carboxylic acid], under setting [1], the ED50 is 1.22 mg/kg.
With `COc1ccc2c(OC(C)C)cc3nc(C(=O)O)cn3c2c1` [Example 14, 8-methoxy-5-isopropoxyimidazo-[1,2-a]-quinoline-2-carboxylic acid], the ED50 is 0.091 mg/kg under setting [1] and roughly 10 mg/kg under setting [2].
Take `COc1ccc2c(Cl)cc3nc(C(=O)O)cn3c2c1.Cl` [Example 16, 5-chloro-8-methoxyimidazo-[1,2-a]-quinoline-2-carboxylic acid hydrochloride]: the ED50 under setting [1] came out at 0.016 mg/kg and the ED50 under setting [2] came to 0.27 mg/kg.
On the same counts, the results for `CC(C)Oc1cc2nc(C(=O)O)cn2c2cc(Cl)ccc12` [Example 18, 8-chloro-5-isopropoxyimidazo-[1,2-a]-quinoline-2-carboxylic acid] are 0.027 mg/kg and 0.34 mg/kg.
Regarding `COc1ccc2ccc3nc(C(=O)O)cn3c2c1` [Example 20, 8-methoxyimidazo-[1,2-a]-quinoline-2-carboxylic acid], the ED50 runs as follows: under setting [1], 0.038 mg/kg; under setting [2], 0.14 mg/kg.
On the same counts, the results for `O=C(O)c1cn2c(cc(Cl)c3ccc(Cl)cc32)n1` [Example 22, 5,8-dichloroimidazo-[1,2-a]-quinoline-2-carboxylic acid] are 0.023 mg/kg and 0.033 mg/kg.
`O.O=C(O)c1cn2c(ccc3cc(Cl)ccc32)n1` [Example 24, 7-chloroimidazo-[1,2-a]-quinoline-2-carboxylic acid monohydrate]: the ED50 under setting [1] was 0.29 mg/kg.
As to `O=C(O)c1cn2c(cc(Br)c3ccccc32)n1` [Example 26, 5-bromoimidazo-[1,2-a]-quinoline-2-carboxylic acid], the ED50 came out at 0.046 mg/kg under setting [1] and 0.14 mg/kg under setting [2].
Regarding `COc1ccc2c(ccc3nc(C(=O)O)cn32)c1` [Example 28, 7-methoxyimidazo-[1,2-a]-quinoline-2-carboxylic acid], the ED50 under setting [1] worked out at 0.03 mg/kg.
For `O=C(O)c1cn2c(cc(Cl)c3ccc(Br)cc32)n1` [Example 32, 8-bromo-5-chloroimidazo-[1,2-a]-quinoline-2-carboxylic acid], the ED50 by setting is: under setting [1], 0.025 mg/kg; under setting [2], 0.08 mg/kg.
Turning to `O=C(OCCN1CCCCC1)c1cn2c(ccc3ccccc32)n1` [Example 35, 2-piperidinoethyl imidazo-[1,2-a]-quinoline-2-carboxylate], the ED50 under setting [1] was 0.42 mg/kg.
